pIC50: −log10 of the molar value.

This assay concerns the target T1, FAAH (Rattus norvegicus, UniProt P97612).
T1 construct: Preparation of Rat Brain Membranes Preparations (FAAH Enzyme Solution); from tissue; host or cells: rat cerebrum (brain membrane preparation)
T1 sequence (P97612 1-579): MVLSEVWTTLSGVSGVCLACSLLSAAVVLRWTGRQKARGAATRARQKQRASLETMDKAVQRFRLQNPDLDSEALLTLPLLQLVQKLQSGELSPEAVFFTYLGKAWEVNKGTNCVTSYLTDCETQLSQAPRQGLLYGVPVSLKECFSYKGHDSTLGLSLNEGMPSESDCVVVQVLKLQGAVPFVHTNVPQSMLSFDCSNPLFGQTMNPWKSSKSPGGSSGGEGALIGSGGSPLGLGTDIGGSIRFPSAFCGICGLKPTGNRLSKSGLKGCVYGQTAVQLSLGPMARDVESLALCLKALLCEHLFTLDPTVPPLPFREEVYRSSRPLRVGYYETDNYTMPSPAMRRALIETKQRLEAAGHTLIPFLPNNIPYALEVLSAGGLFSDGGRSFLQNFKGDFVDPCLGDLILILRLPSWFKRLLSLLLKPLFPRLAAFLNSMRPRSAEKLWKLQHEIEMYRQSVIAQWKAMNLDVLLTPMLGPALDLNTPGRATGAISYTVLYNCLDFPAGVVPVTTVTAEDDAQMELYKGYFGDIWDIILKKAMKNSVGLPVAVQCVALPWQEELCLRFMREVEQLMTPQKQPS
The assay is described as follows: Determination of FAAH inhibitory activity in rat (rat brain membrane preparations, [3H]-anandamide hydrolysis). Type of assay: biochemical. Conditions: rat brain membrane preparations; for inhibition at 0.1 µM: 100 nM test substance, read-out: FAAH Inhibition, Inhibition Rate at 100 nM; for pIC50: test substance 0.1 nM to 1 μM, read-out: FAAH Inhibition IC50. The gist of the method:
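Compounds tested from 0.1 nM to 1 μM to derive IC50 against FAAH hydrolysis in rat brain membrane preparations (100 μg/mL). A 10-min 37 °C preincubation was followed by 10 min with [3H]-anandamide (2 nM) mixed with 2 μM unlabelled anandamide. Radioactive ethanolamine was extracted into the water/methanol layer and counted.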

Broadly, the inhibition is how much of the control response was suppressed. As a reminder, the pIC50 is the IC50 on a negative log10 scale, so that one unit is a factor of ten. `Cn1c(=O)n(C(=O)N2CCCC2)c2nc(-c3ccc(-c4ccccc4)cc3)ncc21` [Example 239, 2-(Biphenyl-4-yl)-7-methyl-9-(pyrrolidin-1-ylcarbonyl)-7,9-dihydro-8H-purine-8-one]: the inhibition at 0.1 µM came out at 89% and the pIC50 is 7.28.
The like results for `Cn1c(=O)n(C(=O)N2CCCC2)c2nc(/C=C/c3ccccc3)ncc21` [Example 241, 7-Methyl-2-[(E)-2-phenylethenyl]-9-(pyrrolidin-1-ylcarbonyl)-7,9-dihydro-8H-purine-8-one] were, in that order, 94% and 7.37.
The corresponding values for `Cn1c(=O)n(C(=O)N2CCCC2)c2nc(/C=C/c3ccc(C(F)(F)F)cc3)ncc21` [Example 243, 7-methyl-9-(pyrrolidin-1-ylcarbonyl)-2-{(E)-2-[4-(trifluoromethyl)phenyl]ethenyl}-7,9-dihydro-8H-purine-8-one] are 89% and 8.30.
For the compound `Cn1c(=O)n(C(=O)N2CCCC2)c2nc(/C=C/c3cccc(C(F)(F)F)c3)ncc21` [Example 244, 7-Methyl-9-(pyrrolidin-1-ylcarbonyl)-2-{(E)-2-[3-(trifluoromethyl)phenyl]ethenyl}-7,9-dihydro-8H-purine-8-one], the inhibition at 0.1 µM is 86% and the negative-log IC50 (pIC50) is 7.96.
The corresponding values for `Cn1c(=O)n(C(=O)N2CCCC2)c2nc(/C=C/c3ccc(F)cc3)ncc21` [Example 245, 2-[(E)-2-(4-Fluorophenyl)ethenyl]-7-methyl-9-(pyrrolidin-1-ylcarbonyl)-7,9-dihydro-8H-purine-8-one] are 80% and 7.24.
Consider `Cn1c(=O)n(C(=O)N2CCCC2)c2nc(/C=C/c3cccc(F)c3)ncc21` [Example 246, 2-[(E)-2-(3-Fluorophenyl)ethenyl]-7-methyl-9-(pyrrolidin-1-ylcarbonyl)-7,9-dihydro-8H-purine-8-one], for which the inhibition at 0.1 µM worked out at 98% and the pIC50 is 7.64.
The like results for `COc1cccc(/C=C/c2ncc3c(n2)n(C(=O)N2CCCC2)c(=O)n3C)c1` [Example 247, 2-[(E)-2-(3-Methoxyphenyl)ethenyl]-7-methyl-9-(pyrrolidin-1-ylcarbonyl)-7,9-dihydro-8H-purine-8-one] were, in that order, 97% and 7.41.
Regarding `Cn1c(=O)n(C(=O)N2CCCC2)c2nc(-c3cccnc3)ncc21` [Example 248], the inhibition at 0.1 µM was found to be 33% and the pIC50 is below 7.00.
The like results for `Cn1c(=O)n(C(=O)N2CCCC2)c2nc(-c3ccc(F)nc3)ncc21` [Example 249] were, in that order, 55% and 7.04.
The corresponding values for `COc1ccc(-c2ncc3c(n2)n(C(=O)N2CCCC2)c(=O)n3C)cn1` [Example 250, 2-(6-Methoxypyridin-3-yl)-7-methyl-9-(pyrrolidin-1-ylcarbonyl)-7,9-dihydro-8H-purine-8-one] are 78% and 7.20.
The corresponding values for `COc1cncc(-c2ncc3c(n2)n(C(=O)N2CCCC2)c(=O)n3C)c1` [Example 251] are 28% and below 7.00.
On to `Cn1c(=O)n(C(=O)N2CCCC2)c2nc(-c3ccncc3)ncc21` [Example 252], for which the inhibition at 0.1 µM came out at 40% and the pIC50 is below 7.00.
The corresponding values for `Cn1c(=O)n(C(=O)N2CCCC2)c2cnc(Cc3ccccc3)nc21` [Example 253, 2-benzyl-9-methyl-7-(pyrrolidin-1-ylcarbonyl)-7,9-dihydro-8H-purine-8-one] are 100% and 8.30.
The like results for `Cn1c(=O)n(C(=O)N2CCCC2)c2cnc(Cc3ccccc3F)nc21` [Example 254, 2-(2-Fluorobenzyl)-9-methyl-7-(pyrrolidin-1-ylcarbonyl)-7,9-dihydro-8H-purine-8-one] were, in that order, 98% and 7.48.
The corresponding values for `Cn1c(=O)n(C(=O)N2CCCC2)c2cnc(Cc3cccc(F)c3)nc21` [Example 255, 2-(3-Fluorobenzyl)-9-methyl-7-(pyrrolidin-1-ylcarbonyl)-7,9-dihydro-8H-purine-8-one] are 100% and 7.85.
As to `Cn1c(=O)n(C(=O)N2CCCC2)c2cnc(Cc3ccc(F)cc3)nc21` [Example 256, 2-(4-Fluorobenzyl)-9-methyl-7-(pyrrolidin-1-ylcarbonyl)-7,9-dihydro-8H-purine-8-one], the inhibition at 0.1 µM is 99% and the negative logarithm of the IC50 (pIC50) was 8.15.
The corresponding values for `Cc1ccccc1Cc1ncc2c(n1)n(C)c(=O)n2C(=O)N1CCCC1` [Example 257, 9-Methyl-2-(2-methylbenzyl)-7-(pyrrolidin-1-ylcarbonyl)-7,9-dihydro-8H-purine-8-one] are 88% and 7.29.
In the case of `Cc1cccc(Cc2ncc3c(n2)n(C)c(=O)n3C(=O)N2CCCC2)c1` [Example 258, 9-Methyl-2-(3-methylbenzyl)-7-(pyrrolidin-1-ylcarbonyl)-7,9-dihydro-8H-purine-8-one], the inhibition at 0.1 µM was determined as 98% and the negative logarithm of the IC50 (pIC50) is 7.40.
For `COc1cccc(Cc2ncc3c(n2)n(C)c(=O)n3C(=O)N2CCCC2)c1` [Example 261, 2-(3-Methoxybenzyl)-9-methyl-7-(pyrrolidin-1-ylcarbonyl)-7,9-dihydro-8H-purine-8-one], the inhibition at 0.1 µM is 100% and the pIC50 is 7.80.
The like results for `COc1ccc(Cc2ncc3c(n2)n(C)c(=O)n3C(=O)N2CCCC2)cc1` [Example 262, 2-(4-Methoxybenzyl)-9-methyl-7-(pyrrolidin-1-ylcarbonyl)-7,9-dihydro-8H-purine-8-one] were, in that order, 99% and 7.62.
The corresponding values for `Cn1c(=O)n(C(=O)N2CCCC2)c2cnc(Cc3ccc(-c4ccccc4)cc3)nc21` [Example 265, 2-(Biphenyl-4-ylmethyl)-9-methyl-7-(pyrrolidin-1-ylcarbonyl)-7,9-dihydro-8H-purine-8-one] are 98% and 8.05.
With `Cn1c(=O)n(C(=O)N2CCCC2)c2cnc(Cc3ccc(F)cc3F)nc21` [Example 266, 2-(2,4-Difluorobenzyl)-9-methyl-7-(pyrrolidin-1-ylcarbonyl)-7,9-dihydro-8H-purine-8-one], the inhibition at 0.1 µM stood at 92% and the negative-log IC50 (pIC50) was 7.39.
The like results for `Cn1c(=O)n(C(=O)N2CCCC2)c2cnc(Cc3cc(F)ccc3F)nc21` [Example 267, 2-(2,5-Difluorobenzyl)-9-methyl-7-(pyrrolidin-1-ylcarbonyl)-7,9-dihydro-8H-purine-8-one] were, in that order, 99% and 7.64.
The corresponding values for `Cn1c(=O)n(C(=O)N2CCCC2)c2cnc(Cc3c(F)cccc3F)nc21` [Example 268, 2-(2,6-Difluorobenzyl)-9-methyl-7-(pyrrolidin-1-ylcarbonyl)-7,9-dihydro-8H-purine-8-one] are 93% and 7.32.
Consider `Cn1c(=O)n(C(=O)N2CCCC2)c2cnc(Cc3cc(F)cc(F)c3)nc21` [Example 270, 2-(3,5-Difluorobenzyl)-9-methyl-7-(pyrrolidin-1-ylcarbonyl)-7,9-dihydro-8H-purine-8-one], for which the inhibition at 0.1 µM turned out to be 96% and the pIC50 is 7.49.
For the compound `CC(c1ccccc1)c1ncc2c(n1)n(C)c(=O)n2C(=O)N1CCCC1` (stereo not shown) [Example 273], the inhibition at 0.1 µM stood at 89% and the pIC50 was 7.33.

Values taken from patent US8735406B2, “8-oxodihydropurine derivative” (Dainippon Sumitomo Pharma Co., Ltd., priority 2009, dated 2014).
